Results published in patent US12319652B2, “Salts and solid forms of (R)-1-(5-methoxy-1H-indol-1-yl)-N,N-dimethylpropan-2-amine” (priority 2021, dated 2025).

How the values were obtained:
[1] = Qualitative solubility screen of Compound 1 HCl; assay type: physicochemical
Procedure: The qualitative solubility screen was carried out to determine the range of solvents incorporated into future suspension equilibration panels.
Products that crystallized were centrifuged and analyzed as wet pellet by XRPD, dried under reduced pressure and re-analyzed by XRPD, with selected samples further analyzed by TGA and ^1H NMR spectroscopy.

[2] = Suspension equilibration of Compound 1 HCl at 20 and 40° C.
Procedure: The purpose of this panel was to determine if Form A evolves into a supra-ordinate form, the companion panel at 40° C. set-point was in place to detect enantiotropic behavior via different relative proportions in different solvents.
All isolated products, both wet and dry were consistent with Form A at both temperatures.

[3] = Ethanol/Water (15% v/v, 0.5 aw), 5 vol
[4] = 2-Propanol 5.0 vol, panel at 40° C.
[5] = Acetone 5.0 vol, equilibration at 20° C.
[6] = Acetone 5.0 vol, panel at 40° C.
[7] = Acetone/Water (5% v/v, 0.5 aw) 5.0 vol, equilibration at 20° C.
[8] = Acetonitrile 5.0 vol, panel at 40° C.
[9] = Chlorobenzene 5.0 vol, equilibration at 20° C.
[10] = Chlorobenzene 5.0 vol, panel at 40° C.
[11] = DCM 5.0 vol, equilibration at 20° C.
[12] = EtOAc 5.0 vol, equilibration at 20° C.
[13] = EtOH 5.0 vol, equilibration at 20° C.
[14] = Ethanol 5.0 vol, panel at 40° C.
[15] = Ethyl acetate 5.0 vol, panel at 40° C.
[16] = Ethyl formate 5.0 vol, equilibration at 20° C.
[17] = Ethyl formate 5.0 vol, panel at 40° C.
[18] = Heptane 5.0 vol, equilibration at 20° C.
[19] = Heptane 5.0 vol, panel at 40° C.
[20] = Isopropanol/Water (12% v/v, 0.5 aw) 5.0 vol, equilibration at 20° C.
[21] = Isopropyl acetate 5.0 vol, equilibration at 20° C.
[22] = Isopropyl acetate 5.0 vol, panel at 40° C.
[23] = MEK 5.0 vol, equilibration at 20° C.
[24] = MeCN 5.0 vol, equilibration at 20° C.
[25] = MeOH 5.0 vol, equilibration at 20° C.
[26] = Methanol 5.0 vol, panel at 40° C.
[27] = Methyl acetate 5.0 vol, equilibration at 20° C.
[28] = Methyl acetate 5.0 vol, panel at 40° C.
[29] = Nitromethane 5.0 vol, panel at 40° C.
[30] = TBME 5.0 vol, equilibration at 20° C.
[31] = Toluene 5.0 vol, panel at 40° C.
[32] = Water 5.0 vol, equilibration at 20° C.

COc1ccc2c(ccn2C[C@@H](C)N(C)C)c1.Cl [Compound 1 HCl]
XRPD (dried pellet) ([1]; 2-Propanol): Form A | XRPD (moist pellet) ([1]; 2-Propanol): Paste | Solid on cooling? ([1]; 2-Propanol, 10 vol): ✓ | Solution at reflux ([1]; 2-Propanol, 10 vol): ✓ | Solution at reflux ([1]; 2-Propanol, 15 vol): ✓ | XRPD (dried pellet) ([1]; Acetone): Form A | XRPD (moist pellet) ([1]; Acetone): Form A | XRPD (moist pellet) ([1]; Acetone/Water (5% v/v, 0.5 aw)): Solution | Solid on cooling ([1]; Acetone/Water (5% v/v, 0.5 aw), 5 vol): ✓ | Solution at reflux ([1]; Acetone/Water (5% v/v, 0.5 aw), 10 vol): ✓ | XRPD (dried pellet) ([1]; Chlorobenzene): Form A | XRPD (moist pellet) ([1]; Chlorobenzene): Paste | XRPD (moist pellet) ([1]; DCM): Form A | XRPD (moist pellet) ([1]; EtOAc): Form A | XRPD (dried pellet) ([1]; EtOH): Form A | XRPD (moist pellet) ([1]; EtOH): Form A | Solid on cooling ([1]; EtOH, 15 vol): ✓ | Solid on cooling ([1]; EtOH, 20 vol): ✓ | XRPD (moist pellet) ([1]; Ethanol/Water (15% v/v, 0.5 aw)): Solution | Solid on cooling [1, 3]: ✓ | Solution at reflux [1, 3]: ✓ | Solution at 20° C. ([1]; Ethanol/Water (15% v/v, 0.5 aw), 10 vol): ✓ | XRPD (moist pellet) ([1]; Ethyl formate): Form A | XRPD (moist pellet) ([1]; Heptane): Form A | XRPD (moist pellet) ([1]; Isopropanol/Water (12%, v/v, 0.5 aw)): Solution | Solid on cooling ([1]; Isopropanol/Water (12%, v/v, 0.5 aw), 5 vol): ✓ | Solution at reflux ([1]; Isopropanol/Water (12%, v/v, 0.5 aw), 10 vol): ✓ | XRPD (dried pellet) ([1]; MEK): Form A | XRPD (moist pellet) ([1]; MEK): Paste | XRPD (moist pellet) ([1]; MeCN): Form A | Solid on cooling ([1]; MeCN, 15 vol): ✓ | Solid on cooling ([1]; MeCN, 20 vol): ✓ | XRPD (moist pellet) ([1]; MeOH): Solution | Solution at reflux ([1]; MeOH, 10 vol): ✓ | XRPD (dried pellet) ([1]; MeTHF): Form A | XRPD (moist pellet) ([1]; MeTHF): Paste | XRPD (dried pellet) ([1]; Methyl acetate): Form A | XRPD (moist pellet) ([1]; Methyl acetate): Paste | XRPD (dried pellet) ([1]; Nitromethane): Form A | XRPD (moist pellet) ([1]; Nitromethane): Paste | Solid on cooling? ([1]; Nitromethane, 10 vol): ✓ | Solution at 40° C. ([1]; Nitromethane, 15 vol): ✓ | Solution at reflux ([1]; Nitromethane, 15 vol): ✓ | XRPD (moist pellet) ([1]; TBME): Form A | XRPD (dried pellet) ([1]; Toluene): Form A | XRPD (moist pellet) ([1]; Toluene): Paste | XRPD (moist pellet) ([1]; Water): Solution | Solution at 20° C. ([1]; Water, 5 vol): ✓ | Qualitative solubility ([1]; polar and aqueous solvents at temperature, panel of 22 solvents): soluble | Qualitative solubility ([1]; polar solvents and solvents with high water activity): readily soluble | Observations (t = 0 @ 20° C.) ([2]; 2-Propanol 5.0 vol, equilibration at 20° C.): Suspension | Observations (t = 0 @ 20° C.) [2, 4]: Suspension | Observations (t = 1 d @ 20° C.) [2, 4]: Suspension | Observations (t = 0 @ 20° C.) [2, 5]: Suspension | Observations (t = 1 d @ 20° C.) [2, 5]: Suspension | Observations (t = 10 d @ 20° C.) [2, 5]: White Paste | Observations (t = 0 @ 20° C.) [2, 6]: Suspension | Observations (t = 1 d @ 20° C.) [2, 6]: Suspension | Observations (t = 10 d @ 20° C.) [2, 6]: Yellow susp. | Observations (t = 0 @ 20° C.) [2, 7]: Suspension | Observations (t = 1 d @ 20° C.) [2, 7]: Suspension | Observations (t = 10 d @ 20° C.) [2, 7]: Pink paste | Observations (t = 0 @ 20° C.) ([2]; Acetone/Water (5% v/v, 0.5 aw) 5.0 vol, panel at 40° C.): Suspension | Observations (t = 0 @ 20° C.) [2, 8]: Suspension | Observations (t = 1 d @ 20° C.) [2, 8]: Suspension | Observations (t = 0 @ 20° C.) [2, 9]: Suspension | Observations (t = 1 d @ 20° C.) [2, 9]: Suspension | Observations (t = 0 @ 20° C.) [2, 10]: Suspension | Observations (t = 1 d @ 20° C.) [2, 10]: Suspension | Observations (t = 0 @ 20° C.) [2, 11]: Suspension | Observations (t = 1 d @ 20° C.) [2, 11]: Suspension | Observations (t = 10 d @ 20° C.) [2, 11]: Pink paste | Observations (t = 0 @ 20° C.) ([2]; DCM 5.0 vol, panel at 40° C.): Suspension | Observations (t = 1 d @ 20° C.) ([2]; DCM 5.0 vol, panel at 40° C.): Suspension | Observations (t = 0 @ 20° C.) [2, 12]: Suspension | Observations (t = 1 d @ 20° C.) [2, 12]: Suspension | Observations (t = 10 d @ 20° C.) [2, 12]: White paste | Observations (t = 0 @ 20° C.) [2, 13]: Suspension | Observations (t = 1 d @ 20° C.) [2, 13]: Suspension | Observations (t = 10 d @ 20° C.) [2, 13]: Pink paste | Observations (t = 0 @ 20° C.) [2, 14]: Suspension | Observations (t = 1 d @ 20° C.) [2, 14]: Suspension | Observations (t = 0 @ 20° C.) ([2]; Ethanol/Water (15% v/v, 0.5 aw) 5.0 vol, equilibration at 20° C.): Suspension | Observations (t = 0 @ 20° C.) [2, 15]: Suspension | Observations (t = 1 d @ 20° C.) [2, 15]: Suspension | Observations (t = 0 @ 20° C.) [2, 16]: Suspension | Observations (t = 1 d @ 20° C.) [2, 16]: Suspension | Observations (t = 0 @ 20° C.) [2, 17]: Suspension | Observations (t = 1 d @ 20° C.) [2, 17]: Suspension | Observations (t = 0 @ 20° C.) [2, 18]: Suspension | Observations (t = 1 d @ 20° C.) [2, 18]: Suspension | Observations (t = 0 @ 20° C.) [2, 19]: Suspension | Observations (t = 1 d @ 20° C.) [2, 19]: Suspension | Observations (t = 0 @ 20° C.) [2, 20]: Suspension | Observations (t = 1 d @ 20° C.) [2, 20]: Partial | Observations (t = 0 @ 20° C.) ([2]; Isopropanol/Water (12% v/v, 0.5 aw) 5.0 vol, panel at 40° C.): Suspension | Observations (t = 0 @ 20° C.) [2, 21]: Suspension | Observations (t = 1 d @ 20° C.) [2, 21]: Suspension | Observations (t = 0 @ 20° C.) [2, 22]: Suspension | Observations (t = 1 d @ 20° C.) [2, 22]: Suspension | Observations (t = 0 @ 20° C.) [2, 23]: Suspension | Observations (t = 1 d @ 20° C.) [2, 23]: Suspension | Observations (t = 0 @ 20° C.) ([2]; MEK 5.0 vol, panel at 40° C.): Suspension | Observations (t = 1 d @ 20° C.) ([2]; MEK 5.0 vol, panel at 40° C.): Suspension | Observations (t = 0 @ 20° C.) [2, 24]: Suspension | Observations (t = 1 d @ 20° C.) [2, 24]: Suspension | Observations (t = 10 d @ 20° C.) [2, 24]: White Paste | Observations (t = 0 @ 20° C.) [2, 25]: Suspension | Observations (t = 1 d @ 20° C.) [2, 25]: Suspension | Observations (t = 0 @ 20° C.) ([2]; MeTHE 5.0 vol, equilibration at 20° C.): Suspension | Observations (t = 0 @ 20° C.) ([2]; MeTHF 5.0 vol, panel at 40° C.): Suspension | Observations (t = 1 d @ 20° C.) ([2]; MeTHF 5.0 vol, panel at 40° C.): Suspension | Observations (t = 0 @ 20° C.) [2, 26]: Suspension | Observations (t = 1 d @ 20° C.) [2, 26]: Suspension | Observations (t = 0 @ 20° C.) [2, 27]: Suspension | Observations (t = 1 d @ 20° C.) [2, 27]: Suspension | Observations (t = 0 @ 20° C.) [2, 28]: Suspension | Observations (t = 1 d @ 20° C.) [2, 28]: Suspension | Observations (t = 0 @ 20° C.) ([2]; Nitromethane 5.0 vol, equilibration at 20° C.): Suspension | Observations (t = 0 @ 20° C.) [2, 29]: Suspension | Observations (t = 1 d @ 20° C.) [2, 29]: Suspension | Observations (t = 0 @ 20° C.) [2, 30]: Suspension | Observations (t = 1 d @ 20° C.) [2, 30]: Suspension | Observations (t = 10 d @ 20° C.) [2, 30]: White Paste | Observations (t = 0 @ 20° C.) ([2]; THF 5.0 vol, equilibration at 20° C.): Suspension | Observations (t = 0 @ 20° C.) ([2]; THF 5.0 vol, panel at 40° C.): Suspension | Observations (t = 1 d @ 20° C.) ([2]; THF 5.0 vol, panel at 40° C.): Suspension | Observations (t = 0 @ 20° C.) ([2]; Toluene 5.0 vol, equilibration at 20° C.): Suspension | Observations (t = 0 @ 20° C.) [2, 31]: Suspension | Observations (t = 1 d @ 20° C.) [2, 31]: Suspension | Observations (t = 0 @ 20° C.) [2, 32]: Solution | Observations (t = 1 d @ 20° C.) [2, 32]: Solution | Observations (t = 0 @ 20° C.) ([2]; Water 5.0 vol, panel at 40° C.): Solution | Observations (t = 10 d @ 20° C.) ([2]; Water 5.0 vol, panel at 40° C.): Orange susp. | Observations (t = 0 @ 20° C.) ([2]; tBME 5.0 vol, panel at 40° C.): Suspension | Observations (t = 1 d @ 20° C.) ([2]; tBME 5.0 vol, panel at 40° C.): Suspension
